Measured values as given in US20250313548A1 (Actio Biosciences, Inc., priority 2023, published 2025).

Biological target: human, KCNT1 (Homo sapiens (Human), UniProt Q5JUK3)
Assay: FLIPR Tl/K Flux Assay
Format: cell-based
Conditions: HEK293 cells stably expressing human KCNT1; Tl+ flux stimulated with EC80 of agonist Loxapine
In short: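 Inhibition values come from a Hill-equation fit of % inhibition versus log concentration, using normalized fluorescence (Fmax/Fmin) over a 160 s read. The read followed stimulation with Tl+ plus EC80 agonist loxapine after 30 min compound pre-incubation at 25 °C. Cells were KCNT1-expressing HEK293, dye-loaded 1 h in pH 7.4 HEPES/HBSS with 5 mM probenecid.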

Sequence of human, KCNT1 (Q5JUK3 whole entry): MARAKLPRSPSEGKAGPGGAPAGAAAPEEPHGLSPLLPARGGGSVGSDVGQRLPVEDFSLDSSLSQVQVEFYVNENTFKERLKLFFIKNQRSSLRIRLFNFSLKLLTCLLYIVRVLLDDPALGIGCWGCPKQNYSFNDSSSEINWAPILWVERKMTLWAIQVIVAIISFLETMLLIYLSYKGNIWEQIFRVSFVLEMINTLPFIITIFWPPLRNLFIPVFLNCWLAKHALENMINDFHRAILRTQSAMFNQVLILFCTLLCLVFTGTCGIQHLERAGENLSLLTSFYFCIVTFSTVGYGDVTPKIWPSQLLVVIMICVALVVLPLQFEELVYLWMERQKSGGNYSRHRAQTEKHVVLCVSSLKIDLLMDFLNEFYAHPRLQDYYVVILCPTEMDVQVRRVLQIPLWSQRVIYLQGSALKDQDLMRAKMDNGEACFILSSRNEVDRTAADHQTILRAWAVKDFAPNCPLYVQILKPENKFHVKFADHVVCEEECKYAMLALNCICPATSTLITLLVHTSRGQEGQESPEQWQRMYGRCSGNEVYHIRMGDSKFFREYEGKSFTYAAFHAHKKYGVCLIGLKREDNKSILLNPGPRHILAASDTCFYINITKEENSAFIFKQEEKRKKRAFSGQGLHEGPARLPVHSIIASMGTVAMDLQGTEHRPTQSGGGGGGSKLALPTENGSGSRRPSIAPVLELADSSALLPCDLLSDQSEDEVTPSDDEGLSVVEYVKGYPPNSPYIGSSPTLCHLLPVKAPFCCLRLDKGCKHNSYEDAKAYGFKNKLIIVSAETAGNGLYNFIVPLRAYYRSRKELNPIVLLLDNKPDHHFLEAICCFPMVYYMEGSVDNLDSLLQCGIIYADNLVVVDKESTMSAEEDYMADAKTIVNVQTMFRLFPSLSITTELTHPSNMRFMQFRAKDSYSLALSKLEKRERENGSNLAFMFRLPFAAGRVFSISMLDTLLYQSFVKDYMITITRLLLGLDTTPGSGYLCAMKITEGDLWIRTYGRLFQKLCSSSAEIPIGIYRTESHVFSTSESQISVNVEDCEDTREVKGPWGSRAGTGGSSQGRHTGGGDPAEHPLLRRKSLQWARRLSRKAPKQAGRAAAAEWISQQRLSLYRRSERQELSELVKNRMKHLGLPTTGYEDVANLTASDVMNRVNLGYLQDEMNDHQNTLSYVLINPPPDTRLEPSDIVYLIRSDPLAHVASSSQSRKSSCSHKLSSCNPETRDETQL

IC50 [µM] | Compound
< 0.25 | Cn1nc(CC(F)(F)F)cc1C(=O)N[C@H]1CCCn2nc(-c3ccnc(C(F)(F)F)c3)cc21 [Compound I-389a]
< 0.25 | CCc1cc(-c2cc3n(n2)CCC[C@@H]3NC(=O)c2cc(C(F)(F)F)nn2C)ccn1 [Compound I-390a]
< 0.25 | Cn1nc(C(F)(F)F)cc1C(=O)N[C@H]1CCCn2nc(-c3ccnc(OC(F)(F)F)c3)cc21 [Compound I-391a]
< 0.25 | O=C(N[C@H]1CCCc2cnc(-c3ccnc(C(F)(F)F)c3)cc21)c1cccc(C(F)(F)F)c1 [Compound I-392a]
> 1 | COc1cc(-c2cc3c(cn2)CCCC3NC(=O)c2cc(C(F)(F)F)nn2C)ccn1 (stereo not shown) [Compound I-393]
0.25 to 0.5 | Cc1cccc(C(=O)N[C@H]2CCCc3cnc(-c4ccnc(C(F)(F)F)c4)cc32)c1 [Compound I-394a]
> 1 | CS(=O)(=O)c1cccc(C(=O)N[C@H]2CCc3nn(-c4ccnc(C(F)(F)F)c4)cc32)c1 [Compound I-395a]
< 0.25 | O=C(N[C@H]1CCc2nn(-c3ccnc(C(F)(F)F)c3)cc21)c1cc(F)cc(Cl)c1 [Compound I-396a]
> 1 | Cc1cc(C(=O)N[C@H]2CCCn3nc(-c4ccnc(C(F)(F)F)c4)cc32)cn(C)c1=O [Compound I-397a]
< 0.25 | O=C(N[C@H]1CCCn2nc(-c3ccnc(C(F)(F)F)c3)cc21)c1cn(C2CC2)nc1C(F)(F)F [Compound I-398a]
< 0.25 | O=C(N[C@H]1CCCn2nc(-c3ccnc(C(F)(F)F)c3)cc21)c1cnn(C(F)(F)F)c1 [Compound I-399a]
< 0.25 | O=C(N[C@H]1CCCn2nc(-c3ccnc(C(F)(F)F)c3)cc21)c1ccc2ccnn2c1 [Compound I-400a]
> 1 | O=C(N[C@H]1CCCn2nc(-c3ccnc(C(F)(F)F)c3)cc21)c1cn(C2CC2)nn1 [Compound I-401a]
< 0.25 | Cc1cc(C(=O)N[C@H]2CCCn3nc(-c4ccnc(C(F)(F)F)c4)cc32)nc(C2CC2)n1 [Compound I-402a]
< 0.25 | O=C(N[C@H]1CCCn2nc(-c3ccnc(C(F)(F)F)c3)cc21)c1ccnn1CC(F)F [Compound I-403a]
< 0.25 | N#Cc1cc(OC(F)(F)F)cc(C(=O)N[C@H]2CCCn3nc(-c4ccnc(C(F)(F)F)c4)cc32)c1 [Compound I-404a]
< 0.25 | O=C(N[C@H]1CCCn2nc(-c3ccnc(C(F)(F)F)c3)cc21)c1cccc(F)c1F [Compound I-405a]
0.25 to 0.5 | Cc1nc(C(F)(F)F)c(C(=O)N[C@H]2CCCn3nc(-c4ccnc(C(F)(F)F)c4)cc32)s1 [Compound I-406a]
0.25 to 0.5 | Cn1ncc(C(=O)N[C@H]2CCCn3nc(-c4ccnc(C(F)(F)F)c4)cc32)c1Cl [Compound I-407a]
< 0.25 | O=C(N[C@H]1CCCn2nc(-c3ccnc(C(F)(F)F)c3)cc21)c1cnn2cc(F)ccc12 [Compound I-408a]
< 0.25 | O=C(N[C@H]1CCCn2nc(-c3ccnc(C(F)(F)F)c3)cc21)c1ccc(F)c(C(F)(F)F)c1 [Compound I-410a]
< 0.25 | O=C(N[C@H]1CCCn2nc(-c3ccnc(C(F)(F)F)c3)cc21)c1ccc(F)c(OC(F)(F)F)c1 [Compound I-411a]
> 1 | CC(C)n1cnc(C(=O)N[C@H]2CCCn3nc(-c4ccnc(C(F)(F)F)c4)cc32)n1 [Compound I-412a]
> 1 | O=C(N[C@H]1CCCn2nc(-c3ccnc(C(F)(F)F)c3)cc21)c1cc2n(n1)CCCO2 [Compound I-413a]

IC50 [µM] | Compound
< 0.25 | Cc1cc(C(=O)N[C@H]2CCCn3nc(-c4ccnc(C(F)(F)F)c4)cc32)cc(C)n1 [Compound I-414a]
< 0.25 | Cn1cc(C(=O)N[C@H]2CCCn3nc(-c4ccnc(C(F)(F)F)c4)cc32)c(C(F)F)n1 [Compound I-415a]
0.25 to 0.5 | Cc1cn(C)nc1C(=O)N[C@H]1CCCn2nc(-c3ccnc(C(F)(F)F)c3)cc21 [Compound I-416a]
< 0.25 | Cc1nn(C)c(C(=O)N[C@H]2CCCn3nc(-c4ccnc(C(F)(F)F)c4)cc32)c1F [Compound I-417a]
< 0.25 | Cc1cc(C#N)cc(C(=O)N[C@H]2CCCn3nc(-c4ccnc(C(F)(F)F)c4)cc32)c1 [Compound I-418a]
< 0.25 | O=C(N[C@H]1CCCn2nc(-c3ccnc(C(F)(F)F)c3)cc21)c1cccc(C(F)(F)F)c1F [Compound I-419a]
< 0.25 | COc1cc(C(=O)N[C@H]2CCCn3nc(-c4ccnc(C(F)(F)F)c4)cc32)c(F)cn1 [Compound I-420a]
< 0.25 | Cn1ncc(C(=O)N[C@H]2CCCn3nc(-c4ccnc(C(F)(F)F)c4)cc32)c1C(F)F [Compound I-421a]
> 1 | O=C(N[C@H]1CCCn2nc(-c3ccnc(C(F)(F)F)c3)cc21)c1nc2ccccn2n1 [Compound I-422a]
> 1 | Cc1ccn(CC(=O)N[C@H]2CCCn3nc(-c4ccnc(C(F)(F)F)c4)cc32)n1 [Compound I-423a]
< 0.25 | COc1cc(C(=O)N[C@H]2CCCn3nc(-c4ccnc(C(F)(F)F)c4)cc32)nc(C(F)(F)F)n1 [Compound I-424a]
> 1 | N#Cc1c(C(=O)N[C@H]2CCCn3nc(-c4ccnc(C(F)(F)F)c4)cc32)ncn1CC(F)(F)F [Compound I-425a]
< 0.25 | Cc1cc(C(=O)N[C@H]2CCCn3nc(-c4ccnc(C(F)(F)F)c4)cc32)n(C(F)F)n1 [Compound I-426a]
< 0.25 | COc1cc(-c2cc3n(n2)CC[C@@H]3NC(=O)c2cc(C(F)(F)F)nn2C)ccn1 [Compound I-427a]
> 1 | COc1cc(-c2cc3n(n2)CC[C@H]3NC(=O)c2cc(C(F)(F)F)nn2C)ccn1 [Compound I-427b]
< 0.25 | COc1cc(-c2nc3c(o2)CCC[C@@H]3NC(=O)c2cc(C(F)(F)F)nn2C)ccn1 [Compound I-428a]
< 0.25 | CC(C)c1cc(-c2cc3n(n2)CCC[C@@H]3NC(=O)c2cc(C(F)(F)F)nn2C)ccn1 [Compound I-429a]
< 0.25 | COc1cc(-c2cc3n(n2)CCC[C@@H]3NC(=O)c2cc(C(F)(F)F)nn2C)cc(C)n1 [Compound I-431a]
< 0.25 | Cc1cc(-c2cc3n(n2)CCC[C@@H]3NC(=O)c2cc(C(F)(F)F)nn2C)cc(C(F)(F)F)n1 [Compound I-432a]
> 1 | Cc1cc(-c2cc3n(n2)CCC[C@@H]3NC(=O)c2cc(C(F)(F)F)nn2C)cc(C)n1 [Compound I-433a]
< 0.25 | Cc1nn2ccccc2c1C(=O)N[C@H]1CCCn2nc(-c3ccnc(C(F)(F)F)c3)cc21 [Compound I-434a]
> 1 | O=C(N[C@H]1CCCn2nc(-c3ccnc(C(F)(F)F)c3)cc21)c1cnn(CC(F)(F)F)c1 [Compound I-435a]
> 1 | O=C(N[C@H]1CCCn2nc(-c3ccnc(C(F)(F)F)c3)cc21)c1cc2n(n1)CCO2 [Compound I-436a]
< 0.25 | O=C(N[C@H]1CCCn2nc(-c3ccnc(C(F)(F)F)c3)cc21)c1cncc(C(F)(F)F)n1 [Compound I-437a]

IC50 [µM] | Compound
> 1 | O=C(N[C@H]1CCCn2nc(-c3ccnc(C(F)(F)F)c3)cc21)c1nccc(C(F)(F)F)n1 [Compound I-438a]
< 0.25 | CCc1[nH]nc(C(=O)N[C@H]2CCCn3nc(-c4ccnc(C(F)(F)F)c4)cc32)c1F [Compound I-439a]
0.5 to 1 | Cc1ccn2ncc(C(=O)N[C@H]3CCCn4nc(-c5ccnc(C(F)(F)F)c5)cc43)c2n1 [Compound I-440a]
< 0.25 | CC(C)c1nc(C(=O)N[C@H]2CCCn3nc(-c4ccnc(C(F)(F)F)c4)cc32)co1 [Compound I-441a]
< 0.25 | O=C(N[C@H]1CCCn2nc(-c3ccnc(C(F)(F)F)c3)cc21)c1cc2cccnn2c1 [Compound I-442a]
< 0.25 | N#Cc1cccc(C(=O)N[C@H]2CCCCn3nc(-c4ccnc(C(F)(F)F)c4)cc32)c1 [Compound I-443a]
0.5 to 1 | Cn1nc(C(F)(F)F)cc1C(=O)N[C@H]1CCCn2nc(-c3ccnc(C(C)(C)O)c3)cc21 [Compound I-444a]
< 0.25 | Cc1cnc(C(F)(F)F)cc1-n1cc2c(n1)CCC[C@@H]2NC(=O)c1cc(C(F)(F)F)nn1C [Compound I-445a]
< 0.25 | COc1cc(-n2cc3c(n2)CC[C@@H]3NC(=O)c2cc(F)cc(F)c2)ccn1 [Compound I-446a]
< 0.25 | COc1cc(-c2cc3n(n2)CC[C@@H]3NC(=O)c2cc(F)cc(F)c2)ccn1 [Compound I-447a]
< 0.25 | COc1cc(-c2cc3n(n2)CC[C@H]3NC(=O)c2cc(F)cc(F)c2)ccn1 [Compound I-447b]
< 0.25 | Cc1cc(C(=O)N[C@H]2CCCn3nc(-c4ccnc(C(F)(F)F)c4)cc32)n(-c2ccccc2)n1 [Compound I-448a]
< 0.25 | N#Cc1cccc(C(=O)N[C@H]2CCCn3nc(-c4ccnc(C5CC5)c4)cc32)c1 [Compound I-449a]
< 0.25 | O=C(N[C@H]1CCn2nc(-c3ccnc(C(F)(F)F)c3)cc21)c1cc(Cl)cc(C(F)(F)F)c1 [Compound I-451a]
0.25 to 0.5 | Cn1nc(C(F)(F)F)cc1C(=O)N[C@H]1CCCc2cnc(-c3ccnc(C(F)(F)F)c3)nc21 [Compound I-452a]
> 1 | Cn1nc(C(F)(F)F)cc1C(=O)N[C@@H]1CCCc2cnc(-c3ccnc(C(F)(F)F)c3)nc21 [Compound I-452b]
> 1 | O=C(N[C@H]1CCCc2nnc(-c3ccnc(C(F)(F)F)c3)cc21)c1cc(F)cc(F)c1 [Compound I-453a]
> 1 | O=C(N[C@@H]1CCCc2nnc(-c3ccnc(C(F)(F)F)c3)cc21)c1cc(F)cc(F)c1 [Compound I-453b]
< 0.25 | N#Cc1cccc(C(=O)N[C@H]2CCc3nn(-c4ccnc(C(F)(F)F)c4)cc32)c1 [Compound I-454a]
< 0.25 | N#Cc1cc(F)cc(C(=O)N[C@H]2CCc3nn(-c4ccnc(C(F)(F)F)c4)cc32)c1 [Compound I-455a]
< 0.25 | COc1cc(-c2cc3n(n2)CCCC[C@@H]3NC(=O)c2cccc(C#N)c2)ccn1 [Compound I-456a]
< 0.25 | N#Cc1cccc(C(=O)N[C@H]2CCCCn3nc(-c4ccnc(C5CC5)c4)cc32)c1 [Compound I-457a]
